Experimental data taken from patent US20130065314A1, “ALGAL TRANSFORMATION SYSTEMS, COMPOSITIONS AND METHODS” (PHYTOCENTRIC BIOTECH INC., priority 2011, published 2013).
Like-named read-outs stand apart in the source and are kept apart here.

Assays:
[1] = tested on: C. reinhardtii (Nit1-305,cw-15); assay: PCR screening of transformant colonies (Zeocin specific primers); type: cell-based, Chlamydomonas reinhardtii; details: pSP124S linearized with KpnI, no pretreatment; 155 bp expected product (FIG. 11 panel A)
Protocol: Transformed colonies were picked from the selection plates and inoculated into liquid selection media to multiply cells to be used for genomic DNA isolation. Genomic DNA from 1×10^5 cells of untransformed algae and the transformants were isolated using DNeasy™ Blood & Tissue Kit (QIAGEN®). ReadyMix™ Taq PCR Reaction Mix with MgCl2 (Sigma, Canada) was used to prepare 20 μl PCR reactions. Thermal cycling conditions were initial denaturation at 95° C. for 5 minutes and 40 cycles of 95° C. for 30 s, 65° C. for 30 s and 72° C. for 1.5 min. A final primer extension cycle was performed at 72° C. for 10 min.

[2] = tested on: linearized plasmid DNA; assay: Gel mobility shift assay of peptide plasmid DNA complex formation; details: 200 ng linearized plasmid DNA, 1% agarose gel
Protocol: Non-covalent attachment was tested using a gel mobility shift assay. The gel mobility shift assay was used to determine the minimum peptide concentration needed bind to plasmid DNA and cause it to shift during electrophoresis. Based on a peptide-DNA charge ratio calculation increasing concentrations of peptide were added to 200 ng of linearized plasmid DNA until the charge of the DNA was neutralized by the peptide causing a mobility shift in the DNA during electrophoresis in a 1% agarose gel.

[3] = tested on: C. reinhardtii (Nit1-305,cw-15); assay: Transformation of algal cells with plasmid DNA and CPP, selection on Zeocin plates; type: cell-based, Chlamydomonas reinhardtii
Protocol: Transformation experiments were conducted. […] Cell culture was grown in 900 ml of SGII+NH4NO3 medium, divided in 3 aliquots into 500 ml Erlenmeyer flasks each containing 300 ml of the culture. The culture was grown for two days until the cell growth reached mid-log phase and cell density reached to 1×10^6 cells ml^−1 (OD at 680 nm=0.6-0.8). Cells were collected at 3000 rpm for 10 minutes to obtain 9×10^8 cells in total. In all transformation experiments for Chlamydomonas reinhardtii, SGII+NH4NO3 medium was used in downstream experimental steps. […] Cells were washed after grown in SGII-NH4NO3 medium to remove NH4 traces. Cells were divided into 3 aliquots each of 3×10^8 cells. Two aliquots of the harvested cells were treated with cell wall degrading enzymes one with cellulase from Aspergillus niger (Sigma, Canada) and the other with lysozyme from chicken egg white (Sigma, Canada).
Lysozyme treatment: Lysozyme from chicken white egg was purchased (Sigma-Aldrich, Canada). Enzymatic assay protocol was modified from Sigma-Aldrich product information publication. For cell lysis/cell wall disruption, use a freshly prepared lysozyme solution (10 mg/ml) in sterilized 10 mM Tris-HCL, pH 8.0. Add 25 μl of a freshly prepared lysozyme to the required number (−5.0×10^7) of cells/transformation reaction, mix by vortexing for 3 seconds. Incubate the lysis mixture for 15 minutes at 37° C. […] Centrifuge the cells and discard the supernatant containing lysozyme. To stop the reaction, wash the cells twice with media and collect the cells at 3000 rpm for 10 minutes. Proceed to downstream applications and/or transformation experiment.
Cellulase treatment: Cellulase (EC 3.2.1.4) was purchased from Sigma-Aldrich, Canada. Enzymatic assay protocol was modified from Sigma-Aldrich product information publication. Just before use, prepare solution containing 8 units/ml (26.7 mg/ml) of cellulase in sterilized cold distilled water. Add 500 μl of a freshly prepared cellulase solution to the required number (−5.0×10^7) of cells, immediately mix by swirling. Incubate the lysis mixture for 15 minutes at 37° C. […] Centrifuge the cells and discard the supernatant containing lysozyme. To stop the reaction, wash the cells twice and collect the cells at 3000 rpm for 10 minutes. Proceed to downstream applications and/or transformation experiment.
The third aliquot was not treated with any enzyme.
After enzymatic treatments, the cells were washed twice with the medium to stop the reaction. Cells of each aliquot were re-suspended in fresh medium (cell concentration=3×10^8ml^−1) and used 300 μl of cell suspension (−5×10^7 number of cell) in each transformation reaction. Cells were transferred to 15 ml Falcon tube containing sterilized 300 mg glass beads of 0.5 mm size. Just prior to starting the next step, 1 μg plasmid DNA and one of the four ATT(s) tested were mixed. One of the four ATT-plasmid mixtures were added to the algal cells and beads suspended in media. The cells, ATT and DNA mixture and the beads were vortexed for 15 seconds. 10 ml of medium was added to the transformation reaction, and the tubes were incubated overnight with shaking at 100 rpm in incubator to allow cell recovery and expression of the gene. The cell suspensions were transferred to fresh tubes to remove beads and cells were spun by centrifugation for 5 minutes at 3000 rpm. The cells were re-suspended in 2 ml of 0.5% agar medium by gentle pipetting and were plated on 2% agar medium supplemented with 10 μg ml^−1 Zeocin.

[4] = pSP124S linearized with EcoRI, 0.5 mm bead disruption, Zeocin 10 μg/ml (FIG. 9)
[5] = pSP124S linearized with KpnI, 0.5 mm bead disruption, Zeocin 10 μg/ml (FIG. 8)

Substance | PCR product with Zeocin specific primers in transformant colonies [1] | amount of peptide at which the shift occurred [2] [ng] | transformed colonies on selection plate [3, 4] | transformed colonies on selection plate [3, 5] | transformation rate compared with the other three peptides [3] | transformed colonies on selection plate [3]
Tat (48-57) (GRKKRRQRRR) [ATT2] | Lane 7 and 8 are positive | 80 | transformed | transformed |  | 
(Arg)9 (RRRRRRRRR) [ATT4] |  | 120 | transformed | transformed |  | 
Transportan [ATT1] | Lane 1 is positive | 339 |  |  | higher | transformed
